Here are results for two compounds from ChEMBL document CHEMBL5046286, “Discovery of MAP855, an Efficacious and Selective MEK1/2 Inhibitor with an ATP-Competitive Mode of Action” (J Med Chem, 2022).

Calls of active or inactive are those of the source. The calls are words filed in the database; no cut-off is given here.

The nature of series [1]: Inhibition of ERK phosphorylation in human A-375 cells incubated for 3 hrs by DELFIA assay. In kind it is cell-based. As to conditions: A-375, 3 h.
Series [2] can be described thus: Octanol-water partition coefficient, logP of the compound by LC-MS analysis. In kind it is physicochemical.
In a further series the target is Cytochrome P450 3A4 (Homo sapiens, UniProt P08684). Nature of the series: Inhibition of CYP3A4 (unknown origin). In kind it is ADME.
A short description of series [3]: Protein binding in human plasma assessed as free fraction. In kind it is ADME, cell-free.
The subject of the next series is A-375. Nature of the series: Antitumor activity against human A-375 cells xenografted in CD1 mouse assessed as tumor growth inhibition at 30 mg/kg bid via oral gavage. In kind it is functional. The following applies: A-375, po, read-out: TGI.
Series [4] in a line: Clearance in Wistar rat at 3 mg/kg, iv measured up to 24 hrs by LC-MS/MS analysis. In kind it is ADME, organism-based. As to conditions: in vivo.
The nature of series [5]: Oral bioavailability in Wistar rat at 10 mg/kg measured up to 24 hrs by LC-MS/MS analysis. In kind it is ADME, organism-based. The following applies: in vivo.
The target in series [6] is High affinity nerve growth factor receptor (Homo sapiens, UniProt P04629). Nature of the series: Inhibition of wild-type human partial length TRKA (G475 to G790 residues) expressed in mammalian expression system by Kinomescan method.
Series [7] concerns Mus musculus. The experiment in a line: In vivo inhibition of ERK phosphorylation in human A-375 cells xenografted CD1 mouse at 30 mg/kg bid via oral gavage measured after 8 hrs by ELISA method. In kind it is functional, organism-based.
Series [8] deals with Mus musculus. Nature of the series: In vivo inhibition of MEK phosphorylation in human A-375 cells xenografted CD1 mouse at 30 mg/kg bid via oral gavage measured after 8 hrs by ELISA method. In kind it is functional, organism-based.
Series [9] has as its system Mus musculus. Nature of the series: In vivo inhibition of DUSP6 in human A-375 cells xenografted CD1 mouse at 30 mg/kg bid via oral gavage measured after 8 hrs by RT-PCR method. In kind it is functional, organism-based.
In series [10] the test system is Mus musculus. The experiment in a line: In vivo inhibition of SPRY4 in human A-375 cells xenografted CD1 mouse at 30 mg/kg bid via oral gavage measured after 8 hrs by RT-PCR method. In kind it is functional, organism-based.
The nature of series [11]: Toxicity in CD1 mouse xenografted with human A-375 cells assessed as body weight loss at 30 mg/kg bid via oral gavage. In kind it is organism-based. The following applies: in vivo.
The nature of series [12]: Volume of distribution at steady state in CD1 mouse at 3 mg/kg, iv measured up to 24 hrs by LC-MS/MS analysis. In kind it is ADME, organism-based. The following applies: in vivo, read-out: Vdss.
A short description of series [13]: AUC in CD1 mouse at 10 mg/kg, po measured up to 24 hrs by LC-MS/MS analysis. Set-up: route oral, dose 10 mg/kg, time <=24. In kind it is ADME, organism-based. As to conditions: in vivo.
A short description of series [14]: Oral bioavailability in CD1 mouse at 10 mg/kg measured up to 24 hrs by LC-MS/MS analysis. In kind it is ADME, organism-based. As to conditions: in vivo.
Series [15] is described as follows: Volume of distribution at steady state in Wistar rat at 3 mg/kg, iv measured up to 24 hrs by LC-MS/MS analysis. As to conditions: in vivo, read-out: Vdss. In kind it is ADME, organism-based.
Series [16] can be described thus: AUC in Wistar rat at 10 mg/kg, po measured up to 24 hrs by LC-MS/MS analysis. Details: route oral, dose 10 mg/kg, time <=24. As to conditions: in vivo. In kind it is ADME, organism-based.
The nature of series [17]: Volume of distribution at steady state in Beagle dog at 3 mg/kg, iv measured up to 24 hrs by LC-MS/MS analysis. In kind it is ADME, organism-based, Canis lupus familiaris. As to conditions: in vivo, read-out: Vdss.
The nature of series [18]: AUC in Beagle dog at 10 mg/kg, po measured up to 24 hrs by LC-MS/MS analysis. As to conditions: in vivo. In kind it is ADME, organism-based, Canis lupus familiaris. Details: route oral, dose 10 mg/kg, time <=24.
Series [19] is described as follows: Oral bioavailability in Beagle dog at 10 mg/kg measured up to 24 hrs by LC-MS/MS analysis. In kind it is ADME, organism-based, Canis lupus familiaris. The following applies: in vivo.
Series [20] deals with Mitogen-activated protein kinase 1 (Homo sapiens) (UniProt P28482). Nature of the series: Inhibition of full length human ERK2 using LCB-FFKNIVTPRTPPP as substrate preincubated for 45 mins followed by substrate addition and measured after 90 mins. The following applies: time 135.0 min.
Series [21] relates to Serine/threonine-protein kinase B-raf (Homo sapiens), P15056 [V600E]. Nature of the series: Inhibition of full length human BRAF V599E mutant using LCB-FFKNIVTPRTPPP as substrate preincubated for 45 mins followed by substrate addition and measured after 90 mins. As to conditions: time 135.0 min.
The target of series [22] is Dual specificity mitogen-activated protein kinase kinase 1 (Homo sapiens, UniProt Q02750). As to conditions: time 120.0 min.
Sequence of Dual specificity mitogen-activated protein kinase kinase 1 (Q02750 whole entry): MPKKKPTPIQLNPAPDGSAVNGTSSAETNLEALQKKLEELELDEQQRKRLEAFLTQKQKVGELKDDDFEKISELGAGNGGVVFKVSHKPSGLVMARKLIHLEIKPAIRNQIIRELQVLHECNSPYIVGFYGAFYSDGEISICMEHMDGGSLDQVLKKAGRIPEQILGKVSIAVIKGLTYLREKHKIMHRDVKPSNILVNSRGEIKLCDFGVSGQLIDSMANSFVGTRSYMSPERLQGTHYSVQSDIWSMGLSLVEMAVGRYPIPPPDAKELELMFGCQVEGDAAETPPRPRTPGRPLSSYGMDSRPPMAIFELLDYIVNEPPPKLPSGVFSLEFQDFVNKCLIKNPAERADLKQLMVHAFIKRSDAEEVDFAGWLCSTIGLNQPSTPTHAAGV

Sequence of Cytochrome P450 3A4 (P08684 whole entry): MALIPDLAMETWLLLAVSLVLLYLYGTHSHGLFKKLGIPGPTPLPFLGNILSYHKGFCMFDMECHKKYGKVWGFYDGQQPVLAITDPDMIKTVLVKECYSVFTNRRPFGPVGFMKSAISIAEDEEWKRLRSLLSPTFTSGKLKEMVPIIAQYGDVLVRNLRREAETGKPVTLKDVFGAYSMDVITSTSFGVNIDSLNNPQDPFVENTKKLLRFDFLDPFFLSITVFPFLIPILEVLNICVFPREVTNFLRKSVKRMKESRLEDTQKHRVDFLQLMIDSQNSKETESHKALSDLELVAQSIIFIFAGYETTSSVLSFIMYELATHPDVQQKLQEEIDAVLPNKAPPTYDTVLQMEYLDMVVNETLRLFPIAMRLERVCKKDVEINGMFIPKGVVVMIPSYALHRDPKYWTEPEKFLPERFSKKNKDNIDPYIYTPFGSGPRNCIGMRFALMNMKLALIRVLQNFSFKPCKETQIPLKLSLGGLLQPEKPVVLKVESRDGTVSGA
Sequence of Mitogen-activated protein kinase 1 (Homo sapiens) (P28482 whole entry): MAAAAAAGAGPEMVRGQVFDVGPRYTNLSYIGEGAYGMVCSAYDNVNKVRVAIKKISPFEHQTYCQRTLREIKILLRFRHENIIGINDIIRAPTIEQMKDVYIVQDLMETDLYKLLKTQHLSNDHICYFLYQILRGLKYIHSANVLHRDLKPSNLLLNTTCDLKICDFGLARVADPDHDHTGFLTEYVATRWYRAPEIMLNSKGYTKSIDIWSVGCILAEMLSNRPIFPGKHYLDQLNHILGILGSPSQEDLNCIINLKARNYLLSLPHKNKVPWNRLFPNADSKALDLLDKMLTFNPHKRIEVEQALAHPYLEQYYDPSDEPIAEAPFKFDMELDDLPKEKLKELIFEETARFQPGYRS
Sequence of Serine/threonine-protein kinase B-raf (Homo sapiens), P15056 [V600E] (P15056 whole entry V600E): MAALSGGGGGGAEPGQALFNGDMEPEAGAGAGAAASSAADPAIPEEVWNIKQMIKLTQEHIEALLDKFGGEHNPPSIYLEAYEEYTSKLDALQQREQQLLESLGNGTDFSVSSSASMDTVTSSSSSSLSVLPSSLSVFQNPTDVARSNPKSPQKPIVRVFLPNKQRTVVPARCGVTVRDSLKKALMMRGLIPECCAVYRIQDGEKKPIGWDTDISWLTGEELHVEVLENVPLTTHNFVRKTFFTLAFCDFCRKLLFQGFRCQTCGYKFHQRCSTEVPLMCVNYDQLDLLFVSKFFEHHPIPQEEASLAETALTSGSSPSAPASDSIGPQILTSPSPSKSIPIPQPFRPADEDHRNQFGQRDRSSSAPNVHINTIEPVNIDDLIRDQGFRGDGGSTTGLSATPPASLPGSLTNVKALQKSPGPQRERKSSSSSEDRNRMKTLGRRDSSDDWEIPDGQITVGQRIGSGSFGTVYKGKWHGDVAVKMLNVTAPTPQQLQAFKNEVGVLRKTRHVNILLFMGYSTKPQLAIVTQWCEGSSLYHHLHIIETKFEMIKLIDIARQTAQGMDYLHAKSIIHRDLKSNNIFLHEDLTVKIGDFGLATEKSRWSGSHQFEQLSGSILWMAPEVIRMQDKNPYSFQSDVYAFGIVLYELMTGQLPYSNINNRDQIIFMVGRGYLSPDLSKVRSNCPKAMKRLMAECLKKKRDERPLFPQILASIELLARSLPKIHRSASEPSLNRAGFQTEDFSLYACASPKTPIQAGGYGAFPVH
Sequence of High affinity nerve growth factor receptor (P04629 whole entry, the tested form may be a part): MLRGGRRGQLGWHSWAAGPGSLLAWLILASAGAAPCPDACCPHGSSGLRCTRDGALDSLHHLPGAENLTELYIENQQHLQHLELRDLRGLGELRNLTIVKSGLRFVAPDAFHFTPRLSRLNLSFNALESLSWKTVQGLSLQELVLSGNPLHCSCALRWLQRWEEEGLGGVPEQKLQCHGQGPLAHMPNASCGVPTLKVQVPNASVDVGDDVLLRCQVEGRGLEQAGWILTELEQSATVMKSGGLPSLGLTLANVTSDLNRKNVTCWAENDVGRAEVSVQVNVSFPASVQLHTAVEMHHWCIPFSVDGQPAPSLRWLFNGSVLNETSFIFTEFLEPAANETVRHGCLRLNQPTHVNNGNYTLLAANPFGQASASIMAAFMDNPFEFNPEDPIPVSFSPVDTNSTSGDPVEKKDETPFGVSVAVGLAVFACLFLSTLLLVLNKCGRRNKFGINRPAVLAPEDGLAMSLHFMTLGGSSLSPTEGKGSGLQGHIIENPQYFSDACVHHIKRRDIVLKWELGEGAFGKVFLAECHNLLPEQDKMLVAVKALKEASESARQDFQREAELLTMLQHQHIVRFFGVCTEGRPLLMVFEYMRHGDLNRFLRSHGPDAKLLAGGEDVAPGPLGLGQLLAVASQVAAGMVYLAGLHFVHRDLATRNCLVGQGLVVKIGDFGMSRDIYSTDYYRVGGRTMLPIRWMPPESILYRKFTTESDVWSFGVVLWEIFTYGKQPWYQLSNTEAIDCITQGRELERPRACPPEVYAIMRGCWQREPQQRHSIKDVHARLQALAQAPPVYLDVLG

Turning to `Cc1nc2cnc3cc(F)c(-c4ccc(Oc5ncccn5)cc4Cl)cc3c2n1C1CCN(C(=O)CO)CC1`, the EC50 in series [1] worked out at 50 µM. In addition, the lipophilicity (logP) in [2] came out at 2. On Cytochrome P450 3A4, this compound gave a half-maximal inhibitory concentration (IC50) of 11 µM. The fraction unbound in [3] is 0.05. Also, in the series with A-375, the inhibition in vivo at 30 mg/kg turned out to be 41%. Moreover, in [4], the clearance was 34 mL/min/kg. The compound further gave a bioavailability in [5] (Wistar) of 37%.
Compound `Cc1nc2cnc3cc(F)c(-c4ccc(Oc5ncccn5)cc4Cl)cc3c2n1[C@H]1CCN(C(=O)CO)C[C@@H]1F` gave a concentration for a half-maximal effect (EC50) in series [1] of 5 µM. The same compound displayed a logP in series [2] of 1.6. Further, the results for the IC50 (against Cytochrome P450 3A4; in [6]) were 7.7 µM and 0.025 µM, respectively. The F in [5] (10 mg/kg, 24 h) is on record as 65%; in series [14], 44%; in [19], 100%. Moreover, the outcome with Mus musculus [7], in the series with Mus musculus [8], in the series on Mus musculus [9] and with Mus musculus [10] was Active. Besides, the Activity entry in [11] is “Non-Toxic”. Besides, the Vd amounted to 2.6 L/kg in [12], 2 L/kg in series [15] and 1.8 L/kg in series [17]. Further, the AUC in series [13] was 0.4 µM·h; in series [16], 0.6 µM·h; in series [18], 1.4 µM·h. In addition, the inhibition result in series [20] and in series [21] was “inactive” throughout. In series [22], this compound had a T1/2 of 1.62 h.
